Measurements as given in US20240148821A1, “PHARMACEUTICAL USE OF CYCLIC PEPTIDE COMPOUND” (CHUGAI SEIYAKU KABUSHIKI KAISHA, priority 2021, published 2024).
Numbered stars: 1 amine (or outer) side, 2 acyl side, 3 side chain; on linkers, the order of the positions; unused ones are H or OH. Bridge positions count the residues as written; N and C are the ends. Square brackets hold non-standard residues; d marks the D form. Peptide text beside a SMILES is read from it. * marks the point of attachment. hPhe(3-Cl-4-CF3) = N[C@@H](CCc1ccc(C(F)(F)F)c(Cl)c1)C(=O)O; NMePhe(4-Me) = CN[C@@H](Cc1ccc(C)cc1)C(=O)O; NMedβ3hAla = C[C@H](CC(=O)[*:2])N(C)[*:1]; NMeGly(cPent) = CN[C@H](C(=O)O)C1CCCC1; NMeCha = CN[C@@H](CC1CCCCC1)C(=O)O; NMeChg = CN[C@H](C(=O)O)C1CCCCC1; NMeF = CN[C@@H](Cc1ccccc1)C(=O)O; NMeI = CC[C@H](C)[C@H](NC)C(=O)O; NMeD = CN[C@@H](CC(=O)O)C(=O)O; NMeL = CN[C@@H](CC(C)C)C(=O)O; NMeNva = CCC[C@H](NC)C(=O)O; NMeV = CN[C@H](C(=O)O)C(C)C; d(β3hA) = C[C@@H](N)CC(=O)O; NMeAbu = CC[C@H](NC)C(=O)O; NMeS = CN[C@@H](CO)C(=O)O; NMeA = CN[C@@H](C)C(=O)O; Piperidide = C1CCN(*)CC1; Pyrrolidide = C1CCN(*)C1; Ac5c = NC1(C(=O)O)CCCC1; Aze = O=C(O)[C@@H]1CCN1; Ac4c = NC1(C(=O)O)CCC1; Sar = CNCC(=O)O; Propyl = CCC*

Each molecule was assayed against protein-protein interaction between Kras and SOS1 (biotin-tagged human Kras loaded with GDP, His-tagged human SOS1) (Homo sapiens (Human), UniProt P01116, G12D) (assay: Protein-protein interaction inhibition between Kras and SOS1 (KrasG12D-SOS PPI) using AlphaScreen). Details: AlphaScreen; biotin-tagged human Kras loaded with GDP, His-tagged human SOS1; read-out: KRAS G12D-SOS PPI IC50.
Format: biochemical

Row | Structure (SMILES) | IC50 [nM]
1 | CC[C@H](C)[C@@H]1NC(=O)[C@H](CC(C)C)N(C)C(=O)C[C@@H](C)NC(=O)[C@H](C(C)C)N(C)C(=O)C2(CCCC2)NC(=O)[C@@H]2CCCN2C(=O)[C@H](CCc2ccc(C(F)(F)F)c(Cl)c2)NC(=O)CN(C)C(=O)[C@H](CC2CCCCC2)N(C)C(=O)[C@@H]2CCN2C(=O)[C@H](CC(C)C)N(C)C1=O [Compound 1619] (cyclo([Ac5c][NMeV][d(β3hA)][NMeL]I[NMeL][Aze][NMeCha][Sar][hPhe(3-Cl-4-CF3)]P)) | 360
2 | CC[C@H](C)[C@@H]1NC(=O)[C@H](CC(C)C)N(C)C(=O)C[C@@H](C)NC(=O)[C@H](C(C)C)N(C)C(=O)C2(CCCC2)NC(=O)[C@@H]2CCCN2C(=O)[C@H](CCc2ccc(C(F)(F)F)c(Cl)c2)NC(=O)CN(C)C(=O)[C@H](CC2CCCCC2)N(C)C(=O)[C@@H]2CCN2C(=O)[C@H](Cc2ccccc2)N(C)C1=O [Compound 1628] (cyclo([Ac5c][NMeV][d(β3hA)][NMeL]I[NMeF][Aze][NMeCha][Sar][hPhe(3-Cl-4-CF3)]P)) | 67
3 | CC[C@H](C)[C@@H]1NC(=O)[C@H](CC)N(C)C(=O)C[C@@H](C(=O)N2CCCCC2)N(C)C(=O)[C@H](C(C)C)N(C)C(=O)C2(CCCC2)NC(=O)[C@@H]2CCCN2C(=O)[C@H](CCc2ccc(C(F)(F)F)c(Cl)c2)NC(=O)CN(C)C(=O)[C@H](CC2CCCCC2)N(C)C(=O)[C@@H]2CCN2C(=O)[C@H](C)N(C)C1=O [Compound 1638] ([NMeAbu]I[NMeA][Aze][NMeCha][Sar][hPhe(3-Cl-4-CF3)]P[Ac5c][NMeV][NMeD]-Piperidide; lactam N-11) | 7.3
4 | CCC[C@H]1C(=O)N[C@@H]([C@@H](C)CC)C(=O)N(C)[C@@H](C)C(=O)N2CC[C@H]2C(=O)N(C)[C@@H](CC2CCCCC2)C(=O)N(C)CC(=O)N[C@@H](CCc2ccc(C(F)(F)F)c(Cl)c2)C(=O)N2CCC[C@H]2C(=O)NC2(CCCC2)C(=O)N(C)[C@@H](C(C)C)C(=O)N(C)[C@H](C(=O)N2CCCCC2)CC(=O)N1C [Compound 1639] ([NMeNva]I[NMeA][Aze][NMeCha][Sar][hPhe(3-Cl-4-CF3)]P[Ac5c][NMeV][NMeD]-Piperidide; lactam N-11) | 5.8
5 | CCCOC[C@H]1C(=O)N(C)CC(=O)N[C@@H](CCc2ccc(C(F)(F)F)c(Cl)c2)C(=O)N2CCC[C@H]2C(=O)NC2(CCCC2)C(=O)N(C)[C@@H](C(C)C)C(=O)N(C)[C@H](C(=O)N2CCCCC2)CC(=O)N(C)[C@@H](CC(C)C)C(=O)N[C@@H]([C@@H](C)CC)C(=O)N(C)[C@@H](C)C(=O)N2CC[C@H]2C(=O)N1C [Compound 1646] ([NMeL]I[NMeA][Aze][NMeS](Propyl)[Sar][hPhe(3-Cl-4-CF3)]P[Ac5c][NMeV][NMeD]-Piperidide; lactam N-11) | 4.6
6 | CC[C@H](C)[C@@H]1NC(=O)[C@H](CC(C)C)N(C)C(=O)C[C@@H](C)N(C)C(=O)[C@H](C(C)C)N(C)C(=O)C2(CCCC2)NC(=O)[C@@H]2CCCN2C(=O)[C@H](CCc2ccc(C(F)(F)F)c(Cl)c2)NC(=O)CN(C)C(=O)[C@H](CC2CCCCC2)N(C)C(=O)[C@@H]2CCN2C(=O)CN(C)C1=O [Compound 1648] (cyclo([Ac5c][NMeV][NMedβ3hAla][NMeL]I[Sar][Aze][NMeCha][Sar][hPhe(3-Cl-4-CF3)]P)) | 10
7 | CC[C@H](C)[C@@H]1NC(=O)[C@H](CC(C)C)N(C)C(=O)C[C@@H](C(=O)N(C)C)N(C)C(=O)[C@H](C(C)C)N(C)C(=O)C2(CCCC2)NC(=O)[C@@H]2CCCN2C(=O)[C@H](CCc2ccc(C(F)(F)F)c(Cl)c2)NC(=O)CN(C)C(=O)[C@H](Cc2ccc(C)cc2)N(C)C(=O)[C@@H]2CCN2C(=O)[C@H](C)N(C)C1=O [Compound 1653] ([NMeL]I[NMeA][Aze][NMePhe(4-Me)][Sar][hPhe(3-Cl-4-CF3)]P[Ac5c][NMeV][NMeD]-NMe2; lactam N-11) | 0.89
8 | CC[C@H](C)[C@@H]1NC(=O)[C@H](CC(C)C)N(C)C(=O)C[C@@H](C)NC(=O)[C@H]([C@@H](C)CC)N(C)C(=O)C2(CCCC2)NC(=O)[C@@H]2CCCN2C(=O)[C@H](CCc2ccc(C(F)(F)F)c(Cl)c2)NC(=O)CN(C)C(=O)[C@H](CC2CCCCC2)N(C)C(=O)[C@@H]2CCN2C(=O)[C@H](C)N(C)C1=O [Compound 1654] (cyclo([Ac5c][NMeI][d(β3hA)][NMeL]I[NMeA][Aze][NMeCha][Sar][hPhe(3-Cl-4-CF3)]P)) | 22
9 | CC[C@H](C)[C@@H]1NC(=O)[C@H](CC(C)C)N(C)C(=O)C[C@@H](C(=O)N2CCCCC2)N(C)C(=O)[C@H](CC(C)C)N(C)C(=O)C2(CCCC2)NC(=O)[C@@H]2CCCN2C(=O)[C@H](CCc2ccc(C(F)(F)F)c(Cl)c2)NC(=O)CN(C)C(=O)[C@H](CC2CCCCC2)N(C)C(=O)[C@@H]2CCN2C(=O)[C@H](C)N(C)C1=O [Compound 1657] ([NMeL]I[NMeA][Aze][NMeCha][Sar][hPhe(3-Cl-4-CF3)]P[Ac5c][NMeL][NMeD]-Piperidide; lactam N-11) | 2.8
10 | CC[C@H](C)[C@@H]1NC(=O)[C@H](CC(C)C)N(C)C(=O)C[C@@H](C(=O)N2CCCC2)N(C)C(=O)[C@H](C(C)C)N(C)C(=O)C2(CCCC2)NC(=O)[C@@H]2CCCN2C(=O)[C@H](CCc2ccc(C(F)(F)F)c(Cl)c2)NC(=O)CN(C)C(=O)[C@H](CC2CCCCC2)N(C)C(=O)[C@@H]2CCN2C(=O)CN(C)C1=O [Compound 1670] ([NMeL]I[Sar][Aze][NMeCha][Sar][hPhe(3-Cl-4-CF3)]P[Ac5c][NMeV][NMeD]-Pyrrolidide; lactam N-11) | 1
11 | CC[C@H](C)[C@@H]1NC(=O)[C@H](CC(C)C)N(C)C(=O)C[C@@H](C(=O)N2CCCCC2)N(C)C(=O)[C@H](C(C)C)N(C)C(=O)C2(CCC2)NC(=O)[C@@H]2CCCN2C(=O)[C@H](CCc2ccc(C(F)(F)F)c(Cl)c2)NC(=O)CN(C)C(=O)[C@H](CC2CCCCC2)N(C)C(=O)[C@@H]2CCN2C(=O)[C@H](C)N(C)C1=O [Compound 1672] ([NMeL]I[NMeA][Aze][NMeCha][Sar][hPhe(3-Cl-4-CF3)]P[Ac4c][NMeV][NMeD]-Piperidide; lactam N-11) | 4.3
12 | CC[C@H](C)[C@@H]1NC(=O)[C@H](CC(C)C)N(C)C(=O)C[C@@H](C(=O)N(C)C)N(C)C(=O)[C@H](C2CCCCC2)N(C)C(=O)C2(CCCC2)NC(=O)[C@@H]2CCCN2C(=O)[C@H](CCc2ccc(C(F)(F)F)c(Cl)c2)NC(=O)CN(C)C(=O)[C@H](CC2CCCCC2)N(C)C(=O)[C@@H]2CCN2C(=O)[C@H](C)N(C)C1=O [Compound 1675] ([NMeL]I[NMeA][Aze][NMeCha][Sar][hPhe(3-Cl-4-CF3)]P[Ac5c][NMeChg][NMeD]-NMe2; lactam N-11) | 1.2
13 | CC[C@H](C)[C@@H]1NC(=O)[C@H](CC(C)C)N(C)C(=O)C[C@@H](C(=O)N2CCCC2)N(C)C(=O)[C@H](C2CCCC2)N(C)C(=O)C2(CCCC2)NC(=O)[C@@H]2CCCN2C(=O)[C@H](CCc2ccc(C(F)(F)F)c(Cl)c2)NC(=O)CN(C)C(=O)[C@H](CC2CCCCC2)N(C)C(=O)[C@@H]2CCN2C(=O)[C@H](C)N(C)C1=O [Compound 1679] ([NMeL]I[NMeA][Aze][NMeCha][Sar][hPhe(3-Cl-4-CF3)]P[Ac5c][NMeGly(cPent)][NMeD]-Pyrrolidide; lactam N-11) | 0.85
